The values below come from patent publication US7837670B2, “Methods and devices for delivering therapeutic agents into the prostate gland” (Boston Scientific Scimed, Inc., priority 2005, dated 2010).

Series [1] in a line: Autoradiography of the prostate after transurethral catheter injection of tritium labeled agent.
Series [2] is described as follows: Parallel autoradiography of liver and urogenital organs to test for regurgitation or escape into the blood stream.
The subject of the next series is BPH. As to conditions: only after 6 months of oral treatment; cited from earlier work.
Setting [3] is: 6 hours after transurethral injection of 150 uCi 3H-flutamide.
The mark [4] stands for this setting: 24 hours after transurethral injection of 150 uCi 3H-flutamide.
Where [5] appears, read: 48 hours after transurethral injection of 150 uCi 3H-flutamide.

For “3H-flutamide [tritium labeled flutamide]”, in series [1] (1 hour after transurethral injection of 150 uCi 3H-flutamide), the “diffuse (non-nuclear, including stroma) activity in prostate” value was “Strong, diffuse activity scattered over the whole prostate”. Besides, in series [1] (setting [3]), the “free (extra-nuclear) activity in prostate” value was “periphery of the gland. Practically no free (extra-nuclear)” and the “glandular nuclear activity in prostate” value is reported as “Strong, selective glandular (but not stromal or muscular)”. Also, the “glandular nuclear activity in prostate” value in series [1] (12 hours after transurethral injection of 150 uCi 3H-flutamide) is “Strong, selective glandular (but not stromal or muscular)”. In addition, in series [1] (setting [4]), the “nuclear binding in prostate” value is reported as “Strong nuclear binding” and the “unbound activity in prostate” value was “minimal unbound activity scattered”. In series [1] (setting [5]), the “extra-nuclear labeling in prostate” value is given as “covers the whole prostate, minimal scattered extra-nuclear” and the “glandular nuclear activity in prostate” value is listed as “Still strong, although somewhat less activity over the”. Besides, in series [2] (all time points (1, 6, 12, 24, 48 hours)), the “autoradiographic labeling of seminal vesicle, seminal duct and testicular samples” value is “remained all negative”. Further, in series [2] (epididymis, 6 hours after transurethral injection of 150 uCi), the “autoradiographic grains in the epididymis (regurgitation of the label)” value is “No grains are seen in the epididymis”. Besides, in series [2] (liver, 48 hours after transurethral injection of 150 uCi), the “autoradiographic grains in the liver (escape into systemic circulation)” value is on record as “No grains are seen in the liver”.

Turning to `CC(C)(C)NC(=O)[C@H]1CC[C@H]2[C@@H]3CC[C@H]4NC(=O)C=C[C@]4(C)[C@H]3CC[C@]12C` [finasteride], the “alleviation of BPH complaints, share of cases” value in the series on BPH is “about half of the cases”.
